Structures can show the parent of a compound that is named as a salt.
Experiment: Phase 1a single ascending dose study: UV-4 in pooled urine, urinary recovery and renal clearance
Format: in vivo, human
Conditions: urine; for Cumulative Amount Ae(0-last): corresponds to Ae(0-48); for Cumulative Percent fe(0-last): corresponds to fe(0-48)
Description: Serial blood samples were collected at pre-dose (0 hour) and 0.5, 1, 1.5, 2, 2.5, 3, 4, 6, 9, 12, 18, 24, 36, and 48 hours post-dose for assessment of UV-4 concentrations in plasma. Pooled urine samples were collected at pre-dose (-12 to 0 hour) and from 0 to 6, 6 to 12, 12 to 24, and 24 to 48 hours post-dose for assessment of UV-4 concentrations in urine. Plasma and urine concentrations of UV-4 were determined by means of validated, sensitive, and specific high-performance liquid chromatography/tandem mass spectrometric (LC-MS/MS) assays. UV-4 plasma and urine concentrations and PK parameters were listed and summarized by dose, as appropriate. Only the 48 subjects who received active investigational product were included in the PK analysis population.
8.2.3 Specimen Preparation, Handling, and Shipping
8.2.3.1 Instructions for Specimen Preparation, Handling, and Storage
The collected PK blood samples (2 mL) will be placed on ice after blood draw, and within 1 hour centrifuged at room temperature at approximately 3000 revolutions per minute for 15 minutes. Plasma will then be harvested and split into 4 aliquots of approximately 250 μ L and stored frozen at -20°C until shipped.
Urine samples (approximately 10 mL) for determination of UV-4 concentrations in urine will be taken from the total volume provided during each collection period. The total volume of each urine collection will be recorded along with the start/stop time for each urine collection interval.
Analysis of plasma and urine for UV-4 will be performed by the qualified bioanalytical laboratory, Quintiles Bioservices, Inc., Ithaca, New York 14950. Instructions for the proper preparation, handling, storage and shipping of specimens will be provided separately in a study-specific laboratory manual (i.e., Biopacket).
8.2.3.2 Specimen Shipment […]
The following single-dose urine PK parameters will be estimated from the UV-4 urine concentration-time data collected, as appropriate:
Ae Amount of UV-4 excreted in urine unchanged, calculated for each collection interval and cumulatively across intervals fe Fraction of UV-4 excreted in urine unchanged, calculated for each collection interval and cumulatively across intervals […]
Additional UV-4 PK parameters may be calculated at the discretion of the […]
Plasma concentrations and plasma and urine PK parameters will be summarized by treatment using descriptive statistics, as appropriate. Figures for the arithmetic mean (and SD) concentration-time data will be presented for all doses on both a linear and semi-logarithmic scale. Individual concentration-time data will be graphically presented on linear and semi-logarithmic scales. Scatter plots of individual and geometric mean PK parameters versus dose will be presented. Additional graphical presentations of PK data may be added at the discretion of the PK analyst.
Dose proportionality of Cmax, AUC(0-last), and AUC(0-inf) will be assessed graphically and statistically using the power model approach with the logarithm of PK parameters AUC(0-inf) and Cmax as the dependent variables and the logarithm of the dose as the independent variable: ([AUC(0-inf), AUC(0-last), or Cmax]=α *doseβ).
11.4.7 Deviation from Original Analysis Plan
Deviations from the formal statistical analysis plan will be noted in the final Clinical Study

[1] = Cohort 4, 90 mg single oral dose, Median
[2] = Cohort 5, 180 mg single oral dose, Ar Mean
[3] = Cohort 5, 180 mg single oral dose, Median
[4] = Cohort 6, 360 mg single oral dose, Ar Mean
[5] = Cohort 6, 360 mg single oral dose, Median
[6] = Cohort 7, 720 mg single oral dose, Ar Mean
[7] = Cohort 7, 720 mg single oral dose, Median
[8] = Cohort 8, 1000 mg single oral dose, Ar Mean
[9] = Cohort 8, 1000 mg single oral dose, Median

COCCCCCCCCCN1C[C@H](O)[C@@H](O)[C@H](O)[C@H]1CO [UV-4B, N-(9’-methoxynonyl)-1-deoxynojirimycin hydrochloride]
By-Interval Amount Ae(6-12) [1]: 6.36 mg
By-Interval Amount Ae(12-24) [1]: 4.01 mg
By-Interval Amount Ae(24-48) [1]: 1.50 mg
By-Interval Percent fe(0-6) [1]: 43.6%
By-Interval Percent fe(6-12) [1]: 7.07%
By-Interval Percent fe(12-24) [1]: 4.46%
By-Interval Percent fe(24-48) [1]: 1.66%
Cumulative Amount Ae(0-12) [1]: 44.2 mg
Cumulative Amount Ae(0-24) [1]: 47.8 mg
Cumulative Percent fe(0-12) [1]: 49.1%
Cumulative Percent fe(0-24) [1]: 53.1%
Cumulative Amount Ae(0-last) [1]: 49.7 mg
Cumulative Percent fe(0-last) [1]: 55.3%
By-Interval Amount Ae(0-6) [2]: 77.5 mg
By-Interval Amount Ae(6-12) [2]: 12.1 mg
By-Interval Amount Ae(12-24) [2]: 6.06 mg
By-Interval Amount Ae(24-48) [2]: 2.43 mg
By-Interval Percent fe(0-6) [2]: 43.0%
By-Interval Percent fe(6-12) [2]: 6.74%
By-Interval Percent fe(12-24) [2]: 3.37%
By-Interval Percent fe(24-48) [2]: 1.35%
Cumulative Amount Ae(0-12) [2]: 89.6 mg
Cumulative Amount Ae(0-24) [2]: 95.7 mg
Cumulative Percent fe(0-12) [2]: 49.8%
Cumulative Percent fe(0-24) [2]: 53.1%
Cumulative Amount Ae(0-last) [2]: 97.9 mg
Cumulative Percent fe(0-last) [2]: 54.5%
By-Interval Amount Ae(0-6) [3]: 77.7 mg
By-Interval Amount Ae(6-12) [3]: 12.1 mg
By-Interval Amount Ae(12-24) [3]: 5.76 mg
By-Interval Amount Ae(24-48) [3]: 2.20 mg
By-Interval Percent fe(0-6) [3]: 43.2%
By-Interval Percent fe(6-12) [3]: 6.72%
By-Interval Percent fe(12-24) [3]: 3.20%
By-Interval Percent fe(24-48) [3]: 1.22%
Cumulative Amount Ae(0-12) [3]: 89.5 mg
Cumulative Amount Ae(0-24) [3]: 96.8 mg
Cumulative Percent fe(0-12) [3]: 49.7%
Cumulative Percent fe(0-24) [3]: 53.8%
Cumulative Amount Ae(0-last) [3]: 99.8 mg
Cumulative Percent fe(0-last) [3]: 55.6%
By-Interval Amount Ae(0-6) [4]: 159 mg
By-Interval Amount Ae(6-12) [4]: 19.1 mg
By-Interval Amount Ae(12-24) [4]: 7.09 mg
By-Interval Amount Ae(24-48) [4]: 2.83 mg
By-Interval Percent fe(0-6) [4]: 44.2%
By-Interval Percent fe(6-12) [4]: 5.32%
By-Interval Percent fe(12-24) [4]: 1.97%
By-Interval Percent fe(24-48) [4]: 0.787%
Cumulative Amount Ae(0-12) [4]: 178 mg
Cumulative Amount Ae(0-24) [4]: 185 mg
Cumulative Percent fe(0-12) [4]: 49.5%
Cumulative Percent fe(0-24) [4]: 51.5%
Cumulative Amount Ae(0-last) [4]: 188 mg
Cumulative Percent fe(0-last) [4]: 52.3%
By-Interval Amount Ae(0-6) [5]: 153 mg
By-Interval Amount Ae(6-12) [5]: 20.0 mg
By-Interval Amount Ae(12-24) [5]: 6.73 mg
By-Interval Amount Ae(24-48) [5]: 2.89 mg
By-Interval Percent fe(0-6) [5]: 42.4%
By-Interval Percent fe(6-12) [5]: 5.55%
By-Interval Percent fe(12-24) [5]: 1.87%
By-Interval Percent fe(24-48) [5]: 0.803%
Cumulative Amount Ae(0-12) [5]: 172 mg
Cumulative Amount Ae(0-24) [5]: 178 mg
Cumulative Percent fe(0-12) [5]: 47.8%
Cumulative Percent fe(0-24) [5]: 49.5%
Cumulative Amount Ae(0-last) [5]: 182 mg
Cumulative Percent fe(0-last) [5]: 50.4%
By-Interval Amount Ae(0-6) [6]: 301 mg
By-Interval Amount Ae(6-12) [6]: 42.5 mg
By-Interval Amount Ae(12-24) [6]: 11.7 mg
By-Interval Amount Ae(24-48) [6]: 4.09 mg
By-Interval Percent fe(0-6) [6]: 41.8%
By-Interval Percent fe(6-12) [6]: 5.90%
By-Interval Percent fe(12-24) [6]: 1.63%
By-Interval Percent fe(24-48) [6]: 0.569%
Cumulative Amount Ae(0-12) [6]: 344 mg
Cumulative Amount Ae(0-24) [6]: 355 mg
Cumulative Percent fe(0-12) [6]: 47.7%
Cumulative Percent fe(0-24) [6]: 49.4%
Cumulative Amount Ae(0-last) [6]: 360 mg
Cumulative Percent fe(0-last) [6]: 49.9%
By-Interval Amount Ae(0-6) [7]: 285 mg
By-Interval Amount Ae(6-12) [7]: 45.7 mg
By-Interval Amount Ae(12-24) [7]: 12.1 mg
By-Interval Amount Ae(24-48) [7]: 4.53 mg
By-Interval Percent fe(0-6) [7]: 39.6%
By-Interval Percent fe(6-12) [7]: 6.34%
By-Interval Percent fe(12-24) [7]: 1.68%
By-Interval Percent fe(24-48) [7]: 0.630%
Cumulative Amount Ae(0-12) [7]: 332 mg
Cumulative Amount Ae(0-24) [7]: 345 mg
Cumulative Percent fe(0-12) [7]: 46.1%
Cumulative Percent fe(0-24) [7]: 47.9%
Cumulative Amount Ae(0-last) [7]: 350 mg
Cumulative Percent fe(0-last) [7]: 48.5%
By-Interval Amount Ae(0-6) [8]: 428 mg
By-Interval Amount Ae(6-12) [8]: 53.7 mg
By-Interval Amount Ae(12-24) [8]: 16.4 mg
By-Interval Amount Ae(24-48) [8]: 5.21 mg
By-Interval Percent fe(12-24) [8]: 1.64%
Cumulative Amount Ae(0-12) [8]: 482 mg
Cumulative Amount Ae(0-24) [8]: 498 mg
Cumulative Amount Ae(0-last) [8]: 504 mg
By-Interval Amount Ae(0-6) [9]: 421 mg
By-Interval Amount Ae(6-12) [9]: 56.1 mg
By-Interval Amount Ae(12-24) [9]: 16.6 mg
By-Interval Amount Ae(24-48) [9]: 5.03 mg
Cumulative Amount Ae(0-12) [9]: 475 mg
Cumulative Amount Ae(0-24) [9]: 496 mg
Cumulative Amount Ae(0-last) [9]: 501 mg

From paper PMC9387934, “Randomized single oral dose phase 1 study of safety, tolerability, and pharmacokinetics of Iminosugar UV-4 Hydrochloride (UV-4B) in healthy subjects” (PLoS Neglected Tropical Diseases, 2022)
